Results on one molecule are retold here after patent US11564913B2, “Compositions and methods for treating cancer” (Children's Hospital Medical Center, priority 2019, dated 2023).

In one test the test system is MDA-MB-231 cells. Kind of test: Spheroid formation, hanging drop method. The test is classed as cell-based, human. The following applies: before trituration. The method, then:
FIG. 6: IODVA1 inhibits cell-substratum and cell-cell interactions. (A) IODVA1 impedes spreading of MCF7 and MDA-MB-231 cells on fibronectin. MCF7, T47D, and MDA-MB-231 cells were incubated on fibronectin coated coverslips for 10 min, then further incubated with the indicated concentrations of IODVA1 for 30 min in serum-free media, fixed and observed by bright field microscopy. Areas of single cells were calculated from 6 random fields (no less than 300 cells total per treatment group). Results shown are mean±s.e.m. of a single experiment and are representative of three independent experiments. (B) Effects of IODVA1 treatment on spheroid formation in MCF10A, MCF7, T47D, and MDA-MB-231 cells. […] Aggregates and spheroids were dissociated with accutase and trituration, and the number of live cells was determined by trypan blue exclusion. […]
Spheroids were formed by the hanging drop method or using ultra-low attachment (ULA) plates (Corning). […] Spheroid formation was monitored daily and imaged using EVOS microscope (Life Technologies). For assessment of attachment-free proliferation, the contents of the well were transferred into an Eppendorf tube, centrifuged at 100×g for 5 min, dissociated into a single cell suspension using trituration and Accutase (Invitrogen) treatment at room temperature and counted using trypan blue exclusion.

Test [1] concerns wild-type murine BM leukemic cells expressing p190-BCR-ABL. Put plainly: Colony formation assay (CFU-proB). The test is classed as cell-based. The method, then:
FIG. 14: IODVA1 targets Vav3 in vitro and in vivo. (A) Ba/F3 cells expressing empty vector Mieg3 or p190-BCR-ABL1 were treated with vehicle control or IODVA1 (IO1, 3 μM) for 30 min and incubated with GST-Rac and glutathione beads. Beads were washed and the protein complexes were separated on SDS-PAGE and immunoblotted for pVav3. Input Vav3 was used as control. (B) Binding affinity (Kd) between IODVA1 and Vav3 (green), LARG (brown), and RacGDP (blue). […] Error bars=SD; N=3. (C) Quantification of the average number of colonies made by bone marrow wild-type (black) and Vav3^−/− (lilac) p190-BCR-ABL1 leukemic cells treated with vehicle control or IODVA1 (IO1, 1 and 3 μM) (* p≤0.05; ** p≤0.01; *** p≤0.001; ns, not significant). […] (E) Quantification by densitometry of the pVav3 band from FIG. 14A. […]
B-cell lineage colony-forming units (CFU-proB) were quantified post 9-day culture of leukemic BM cells or sorted for p190-BCR-ABL-expressing B-cell progenitors in M3134 methylcellulose (StemCell Technologies) supplemented with 30% FBS (for mouse B lymphoid colony forming cells; StemCell Technologies), […] L-glutamine (Invitrogen), 1% penicillin-streptomycin (Invitrogen), 100 μM β-mercaptoethanol (Fisher-Scientific), 1% BSA (Sigma-Aldrich), 20 ng/mL of recombinant mouse IL-7 (PeproTech), and 100 ng/mL of recombinant mouse SCF (PeproTech).

As for `OC1(c2ccccn2)N=C(Nc2nc3ccccc3[nH]2)N=C1c1ccccn1` (stereo not drawn) [IODVA1, (Z)-2-((1H-benzo[d]imidazol-2-yl)imino)-4,5-di(pyridin-2-yl)-2,5-dihydro-1H-imidazol-5-ol], the aggregate formation result with MDA-MB-231 cells is on record as “not affected”. Moreover, the “decrease in number of colonies (average)” value is listed as 3 folds in test [1] (1 μM) and 7 folds in test [1] (3 μM).
